Values quoted from earlier work as cited in patent publication US20070021352A1, “PREVENTION AND TREATMENT OF HEARING DISORDERS” (Cypress Bioscience, Inc., priority 2005, published 2007).

Key:
cochlea = conditions: guinea pig model; local administration
[1] = elderly patients; preliminary results
[2] = normal, healthy volunteers; daily ingestion of 6.7 mmol; rifle noise six days per week for eight weeks; vs placebo (sodium aspartate)
[3] = humans; daily ingestion of 122 mg for 10 days

CCN(CC)CCn1c(=O)c(Cc2ccc(OC)cc2)nc2ccccc21 [caroverine, 1-[2-(diethylamino)ethyl]-3-[(4-methoxyphenyl)methyl]-2-(1H)-quinoxalinone]
protection of cochlea from noise trauma (cochlea): protection of cochlea from noise trauma

CN(C)CCCC1(c2ccc(F)cc2)OCc2cc(C#N)ccc21 (stereo not shown) [citalopram, 1-[3-(dimethylamino)propyl]-1-(4-fluorophenyl)-1,3-dihydro-5-isobenzofurancarbonitrile]
impact on auditory processes [1]: positive impact on auditory processes in the elderly

N[C@@H](CC(=O)[O-])C(=O)[O-].[Mg+2] [magnesium aspartate]
permanent threshold shift [2]: significant effect on permanent threshold shift

[Mg] [magnesium]
noise-induced temporary threshold shift [3]: protect against noise-induced temporary threshold shift
